Common to all, as to type: functional
The subject of assay [1] is Staphylococcus aureus. The assay is described as follows: Antibacterial activity against Staphylococcus aureus […] at 100 ug/ml by cup-plate method. The note with it: read-out: DIZ.
Assay [2] relates to Candida albicans. The assay is described as follows: Antifungal activity against Candida albicans ATCC 10231 at 100 ug/ml by cup-plate method. The note with it: read-out: DIZ.
A further assay deals with Escherichia coli. As to the kind of experiment: Antibacterial activity against Escherichia coli […] at 100 ug/ml by cup-plate method. The note with it: read-out: DIZ.
Assay [3] relates to Candida albicans. As to the kind of experiment: Growth inhibition of Candida albicans ATCC 10231 at 100 ug/ml by cup-plate method relative to control. The following applies: read-out: GI.
Assay [4] has as its system Staphylococcus aureus. As to the kind of experiment: Growth inhibition of Staphylococcus aureus […] at 100 ug/ml by cup-plate method relative to control. The following applies: read-out: GI.

As for `NNC(=O)c1cc2ccccc2oc1=O`, the zone of inhibition at 100 µg/mL with Staphylococcus aureus [1] worked out at 10 mm; in the assay with Candida albicans [2], 8 mm; in the assay on Escherichia coli, 9 mm. Moreover, the inhibition of growth at 100 µg/mL with Candida albicans [3] and in the assay with Staphylococcus aureus [4] was 40% in each case.

For the compound `COc1ccccc1/C=N/c1nnc(-c2cc3ccccc3oc2=O)o1`, the zone of inhibition at 100 µg/mL in the assay on Staphylococcus aureus [1] amounted to 14 mm; with Candida albicans [2], 13 mm; with Escherichia coli, 15 mm. Moreover, the inhibition of growth at 100 µg/mL in the assay on Candida albicans [3] was 65%; with Staphylococcus aureus [4], 56%.

As for `COc1cccc(/C=N/c2nnc(-c3cc4ccccc4oc3=O)o2)c1`, the zone of inhibition at 100 µg/mL in the assay on Staphylococcus aureus [1] turned out to be 14 mm; in the assay with Candida albicans [2] it was 14 mm; with Escherichia coli, 15 mm. For the same compound, the results for the inhibition of growth at 100 µg/mL in the assay on Candida albicans [3] and in the assay on Staphylococcus aureus [4] were 70% and 56%, respectively.

On to `O=c1oc2ccccc2cc1-c1nnc(/N=C/c2ccccc2F)o1`, for which the results for the zone of inhibition at 100 µg/mL in the assay with Staphylococcus aureus [1], in the assay on Candida albicans [2] and in the assay with Escherichia coli were 12 mm, 13 mm and 10 mm, respectively. Moreover, the inhibition of growth at 100 µg/mL in the assay on Candida albicans [3] stood at 65%; with Staphylococcus aureus [4], 48%.

Take `O=c1oc2ccccc2cc1-c1nnc(/N=C/c2ccc([N+](=O)[O-])cc2)o1`: the results for the zone of inhibition at 100 µg/mL in the assay on Staphylococcus aureus [1] and in the assay on Escherichia coli were 17 mm and 12 mm, respectively. Further, the inhibition of growth at 100 µg/mL with Staphylococcus aureus [4] turned out to be 64%.

Turning to `O=c1oc2ccccc2cc1-c1nnc(/N=C/c2cccc(F)c2)o1`, the zone of inhibition at 100 µg/mL in the assay on Staphylococcus aureus [1] turned out to be 12 mm; with Candida albicans [2] it was 11 mm; in the assay on Escherichia coli, 10 mm. Moreover, the inhibition of growth at 100 µg/mL with Candida albicans [3] worked out at 55%; in the assay on Staphylococcus aureus [4], 48%.

Take `O=c1oc2ccccc2cc1-c1nnc(/N=C/c2ccccc2)o1`: the values for the zone of inhibition at 100 µg/mL in the assay with Staphylococcus aureus [1], with Candida albicans [2] and in the assay on Escherichia coli were 20 mm, 12 mm and 20 mm, respectively. In addition, the inhibition of growth at 100 µg/mL with Candida albicans [3] worked out at 60%; in the assay on Staphylococcus aureus [4], 80%.

With `O=c1oc2ccccc2cc1-c1nnc(/N=C/c2cccc(Cl)c2)o1`, the zone of inhibition at 100 µg/mL with Candida albicans [2] was 14 mm; in the assay on Escherichia coli it was 17 mm. For the same compound, the inhibition of growth at 100 µg/mL in the assay with Candida albicans [3] amounted to 70%.

On to `O=c1oc2ccccc2cc1-c1nnc(/N=C/c2ccc(Cl)cc2)o1`, for which the zone of inhibition at 100 µg/mL amounted to 15 mm in the assay with Candida albicans [2] and 17 mm in the assay with Escherichia coli. The inhibition of growth at 100 µg/mL with Candida albicans [3] came to 75%.

`O=c1oc2ccccc2cc1-c1nnc(/N=C/c2ccccc2Cl)o1`: the zone of inhibition at 100 µg/mL was found to be 13 mm in the assay with Candida albicans [2] and 17 mm in the assay on Escherichia coli. Also, in the assay with Candida albicans [3], the inhibition of growth at 100 µg/mL stood at 65%.

Regarding `O=c1oc2ccccc2cc1-c1nnc(/N=C/c2ccc(F)cc2)o1`, the zone of inhibition at 100 µg/mL with Staphylococcus aureus [1] was found to be 12 mm; with Candida albicans [2], 10 mm; in the assay with Escherichia coli, 15 mm. Also, the values for the inhibition of growth at 100 µg/mL with Candida albicans [3] and in the assay with Staphylococcus aureus [4] were 50% and 48%, respectively.

With `COc1ccc(/C=N/c2nnc(-c3cc4ccccc4oc3=O)o2)cc1`, the zone of inhibition at 100 µg/mL turned out to be 14 mm in the assay on Staphylococcus aureus [1], 12 mm in the assay with Candida albicans [2] and 10 mm with Escherichia coli. Moreover, the inhibition of growth at 100 µg/mL in the assay with Candida albicans [3] amounted to 60%; in the assay with Staphylococcus aureus [4], 56%.

As for `CN(C)c1ccc(/C=N/c2nnc(-c3cc4ccccc4oc3=O)o2)cc1`, the zone of inhibition at 100 µg/mL in the assay with Staphylococcus aureus [1] was 12 mm; with Candida albicans [2] it was 16 mm; with Escherichia coli, 12 mm. For the same compound, the results for the inhibition of growth at 100 µg/mL with Candida albicans [3] and with Staphylococcus aureus [4] were 80% and 48%, respectively.

For `O=c1oc2ccccc2cc1-c1nnc(/N=C/c2ccccc2[N+](=O)[O-])o1`, the zone of inhibition at 100 µg/mL in the assay with Staphylococcus aureus [1] is 17 mm; with Escherichia coli it was 14 mm. For the same compound, in the assay on Staphylococcus aureus [4], the inhibition of growth at 100 µg/mL turned out to be 64%.

Consider `O=c1oc2ccccc2cc1-c1nnc(/N=C/c2cccc(O)c2)o1`, for which the zone of inhibition at 100 µg/mL was found to be 10 mm with Staphylococcus aureus [1], 11 mm in the assay with Candida albicans [2] and 15 mm in the assay on Escherichia coli. In addition, the values for the inhibition of growth at 100 µg/mL in the assay on Candida albicans [3] and in the assay on Staphylococcus aureus [4] were 55% and 40%, respectively.

Turning to `O=c1oc2ccccc2cc1-c1nnc(/N=C/c2ccccc2O)o1`, the figures for the zone of inhibition at 100 µg/mL with Staphylococcus aureus [1], with Candida albicans [2] and with Escherichia coli were 10 mm, 10 mm and 12 mm, respectively. In addition, the inhibition of growth at 100 µg/mL in the assay with Candida albicans [3] turned out to be 50%; in the assay with Staphylococcus aureus [4], 40%.

Consider `COc1ccc(/C=N/c2nnc(-c3cc4ccccc4oc3=O)o2)cc1OC`, for which the zone of inhibition at 100 µg/mL was 12 mm with Staphylococcus aureus [1], 10 mm in the assay with Candida albicans [2] and 10 mm with Escherichia coli. Moreover, the inhibition of growth at 100 µg/mL stood at 50% in the assay on Candida albicans [3] and 48% in the assay with Staphylococcus aureus [4].

As to `O=c1oc2ccccc2cc1-c1nnc(/N=C/c2ccc(O)cc2)o1`, the zone of inhibition at 100 µg/mL came to 10 mm with Staphylococcus aureus [1], 9 mm in the assay on Candida albicans [2] and 10 mm with Escherichia coli. For the same compound, the inhibition of growth at 100 µg/mL in the assay on Candida albicans [3] worked out at 45%; in the assay with Staphylococcus aureus [4] it was 40%.

For the compound `O=c1oc2ccccc2cc1-c1nnc(/N=C/c2cccc([N+](=O)[O-])c2)o1`, the zone of inhibition at 100 µg/mL in the assay with Staphylococcus aureus [1] worked out at 17 mm; in the assay on Escherichia coli it was 12 mm. The inhibition of growth at 100 µg/mL in the assay on Staphylococcus aureus [4] was found to be 64%.

With `O=C(O)c1cn(C2CC2)c2cc(N3CCNCC3)c(F)cc2c1=O` [CIPROFLOXACIN], the zone of inhibition at 100 µg/mL in the assay with Staphylococcus aureus [1] came out at 25 mm. In addition, in the assay with Staphylococcus aureus [4], the inhibition of growth at 100 µg/mL was 100%.

For `CC(=O)N1CCN(c2ccc(OCC3COC(Cn4ccnc4)(c4ccc(Cl)cc4Cl)O3)cc2)CC1` (configuration not stated) [KETOCONAZOLE], the zone of inhibition at 100 µg/mL in the assay with Candida albicans [2] was determined as 20 mm. For the same compound, the inhibition of growth at 100 µg/mL in the assay on Candida albicans [3] worked out at 100%.

(Values after ChEMBL document CHEMBL3044859, “Antimicrobial activity of Schiff bases of coumarin-incorporated 1,3,4-oxadiazole derivatives: an in vitro evaluation” (2013).)
